Assay results as given in US20120107275A1, “FUSED HETEROCYCLIC DERIVATIVES AND METHODS OF USE” (Amgen Inc., priority 2006, published 2012).
pIC50, pKi: −log10 of the molar value.

Legend:
[1] = biological target: T1, c-Met (Homo sapiens, UniProt P08581); test: c-Met cell-based autophosphorylation assay, PC3 cells (HGF stimulated, IGEN readout); settings: HGF 250 ng/mL
T1 construct: host or cells: PC3 (human)
Experimental: (§1) c-Met Cell-Based Autophosphorylation Assay
(§2) Human PC3 and mouse CT26 cells are available obtained from ATCC. […] 2×10^4 cells in medium were plated per well in a 96 well plate and incubated at 37° C. overnight. The cells were serum-starved by replacing the growth media with basic medium (DMEM low glucose+0.1 BSA, 120 μL per well) at 37° C. for 16 h. […] Compound samples (2.4 μL per well) were diluted with basic medium (240 μL) in a 96 well plate. […] The cells were incubated at 37° C. for 1 h. A (2 mg/mL) solution of CHO-HGF (7.5 μL) was diluted with 30 mL basic medium to provide a final concentration of 500 ng/mL. This HGF-containing media (120 μL) was transferred to a 96 well plate. Compounds (1.2 μL) was added to the HGF-containing media and mixed well.
(§3) BSA/0.1% Tween20) by rotating for 30 min at RT. Antibody beads (25 μL) were transferred to a 96 well plate. Cell lysate solution (25 μL) was transferred added and the plate was shaken at RT for 1 h. […] 1×PBS (175 μL) was added to each well and the electrochemiluminescence was read by an IGEN M8. Raw data was analyzed using a 4-parameter fit equation in XLFit. IC50 values are then determined using Grafit software.

[2] = biological target: T2, c-Met (Mus musculus, UniProt P16056); test: c-Met cell-based autophosphorylation assay, CT26 cells (HGF stimulated, IGEN readout); settings: HGF 250 ng/mL
T2 construct: host or cells: CT26 (mouse)
Experimental: as §1, §2, §3

[3] = biological target: T3, c-Met kinase domain (GST-cMet) (Homo sapiens, UniProt P08581); test: c-Met receptor assay (HTRF kinase assay with GST-cMet (P) enzyme, gastrin and ATP); format: biochemical; settings: for pIC50: c-Met receptor assay; for pKi: illustrative activity values, HTRF kinase assay with GST-cMet (P) enzyme
T3 construct: A PCR product covering residues 1058-1365 of c-Met (c-Met kinase domain); made in house; host or cells: High5 insect cells (baculovirus, BacToBac)
Experimental: Cloning, Expression and Purification of c-Met Kinase Domain
The PCR product is cloned into a modified pFastBac1 expression vector (harboring the gene for S. japonicum glutathione S-transferase immediately upstream of the multiple cloning site) using standard molecular biological techniques. The GST-c-Met kinase domain fusion (GST-Met) gene is transposed into full-length baculovirus DNA using the BacToBac™ system (Invitrogen). High5 cells are infected with the recombinant baculovirus for 72 h at 27° C. The infected cells are harvested by centrifugation and the pellet is stored at −80° C. The pellet is resuspended in buffer A (50 mM HEPES, pH 8.0, 0.25 M NaCl, 10 mM 2-mercaptoethanol, 10% (w/v) glycerol, 0.5% (v/v) protease inhibitor cocktail (Sigma P8340), stirred at 4° C. to homogeneity, and the cells are disrupted by microfluidization (Microfluidics) at 10,000 psi. The resulting lysate is centrifuged at 50,000×g for 90 min at 4° C., and the supernatant is adsorbed onto 10 mL of glutathione Sepharose™ 4B (Amersham) by batch method. The slurry is rocked gently overnight at 4° C. The glutathione resin is harvested by centrifugation and washed three times with 40 mL buffer A by batch method. The resin is washed three times with buffer B (buffer A adjusted to 0.1 M NaCl, less protease inhibitors). The protein is eluted with buffer B containing 25 mM reduced glutathione. Eluted fractions are analyzed by SDS-PAGE and concentrated to <10 mL (˜10 mg/mL total protein). The concentrated protein is separated by Superdex™ 200 (Amersham) size exclusion chromatography in buffer C (25 mM Tris, pH 7.5, 0.1 M NaCl, 10 mM 2-mercaptoethanol, 10% glycerol). The fractions are analyzed by SDS-PAGE and the appropriate fractions are pooled and concentrated to ˜1 mg/mL. The protein is aliquotted and stored at −80° C.
Alternative Purification of Human GST-cMET from Baculovirus Cells
The resin is washed with 10 column volumes (100 mL) of Lysis Buffer. […] The elution is collected as 15 mL fractions. Aliquots of the elution fractions are run on SDS PAGE (12% Tris Glycine gel, Invitrogen, #EC6005BOX). The gel is stained with 0.25% Coomassie Blue stain. Fractions with GST-cMET are concentrated with a Vivaspin 20 mL Concentrator (#VS2002; […]) to a final volume less than 2.0 ml. […] The GST-cMET is eluted with an isocratic run of the above buffer, with the eluent collected in 1.0 mL fractions. Fractions with significant OD280 readings are run on another 12% Tris Glycine gel. The peak tubes with GST-cMET are pooled and the OD280 is read with the column buffer listed above as the blank buffer.
Phosphorylation of the purified GST-cMET is performed by incubating the protein for 3 h at RT with the following:
After incubation, the solution is concentrated in a Vivaspin 20 ml Concentrator to a volume less than 2.00 ml. The solution is applied to the same Superdex 75 16/60 column used above after re-equilibration. The GST-cMET is eluted as described above. The elution fractions corresponding to the first eluted peak on the chromatogram are run on a 12% Tris Glycine gel, as above, to identify the fractions with GST-cMET. Fractions are pooled and the OD280 is read with the column buffer used as the blank.
A Kinase reaction Buffer is prepared as follows:
When the assay is carried out, freshly add:
The HTRF buffer contains:
1. […] 2. […] Then incubate the plate at RT for 30 min. 3.
Use Biomek FX to add 20 μl ATP and Gastrin working solution to the assay plate to start reaction, incubate the plate at RT for 1 h. 4.
KM ATP, KM gastrin for various enzymes were determined by HTRF/^33P labeling and HTRF methods.

T2 sequence (P16056 25-1379): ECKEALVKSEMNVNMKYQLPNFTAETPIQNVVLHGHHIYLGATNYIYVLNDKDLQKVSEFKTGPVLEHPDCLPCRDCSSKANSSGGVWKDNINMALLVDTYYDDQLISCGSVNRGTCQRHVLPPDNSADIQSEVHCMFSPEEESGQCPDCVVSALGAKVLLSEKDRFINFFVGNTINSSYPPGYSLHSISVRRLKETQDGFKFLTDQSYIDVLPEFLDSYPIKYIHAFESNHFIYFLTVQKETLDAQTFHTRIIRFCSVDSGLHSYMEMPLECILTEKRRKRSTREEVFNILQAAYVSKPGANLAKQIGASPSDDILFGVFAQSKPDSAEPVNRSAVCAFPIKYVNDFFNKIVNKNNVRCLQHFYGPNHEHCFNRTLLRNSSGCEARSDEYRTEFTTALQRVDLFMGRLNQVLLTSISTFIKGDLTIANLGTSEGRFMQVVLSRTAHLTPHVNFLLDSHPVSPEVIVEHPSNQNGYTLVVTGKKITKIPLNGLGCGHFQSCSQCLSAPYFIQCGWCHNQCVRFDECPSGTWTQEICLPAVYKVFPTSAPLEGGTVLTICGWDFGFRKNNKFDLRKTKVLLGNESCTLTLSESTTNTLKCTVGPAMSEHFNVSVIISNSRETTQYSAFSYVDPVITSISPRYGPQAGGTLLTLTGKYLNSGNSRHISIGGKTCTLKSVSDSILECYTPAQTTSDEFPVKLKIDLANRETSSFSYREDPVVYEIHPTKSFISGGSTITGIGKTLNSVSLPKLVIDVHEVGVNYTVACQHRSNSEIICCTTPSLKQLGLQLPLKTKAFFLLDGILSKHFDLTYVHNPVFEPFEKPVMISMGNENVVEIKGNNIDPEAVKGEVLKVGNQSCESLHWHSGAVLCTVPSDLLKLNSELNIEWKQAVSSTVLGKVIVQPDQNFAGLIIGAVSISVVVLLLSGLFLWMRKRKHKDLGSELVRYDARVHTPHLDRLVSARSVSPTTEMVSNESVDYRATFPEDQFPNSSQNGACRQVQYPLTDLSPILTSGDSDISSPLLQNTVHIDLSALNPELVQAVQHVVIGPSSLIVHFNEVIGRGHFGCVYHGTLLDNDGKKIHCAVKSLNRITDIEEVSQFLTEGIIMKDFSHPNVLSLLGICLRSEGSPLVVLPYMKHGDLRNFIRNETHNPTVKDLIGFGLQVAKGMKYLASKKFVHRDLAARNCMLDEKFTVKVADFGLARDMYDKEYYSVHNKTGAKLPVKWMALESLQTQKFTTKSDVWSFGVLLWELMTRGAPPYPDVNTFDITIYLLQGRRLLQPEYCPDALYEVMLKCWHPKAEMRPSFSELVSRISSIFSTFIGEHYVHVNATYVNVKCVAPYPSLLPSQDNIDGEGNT
T3 sequence (P08581 1058-1365): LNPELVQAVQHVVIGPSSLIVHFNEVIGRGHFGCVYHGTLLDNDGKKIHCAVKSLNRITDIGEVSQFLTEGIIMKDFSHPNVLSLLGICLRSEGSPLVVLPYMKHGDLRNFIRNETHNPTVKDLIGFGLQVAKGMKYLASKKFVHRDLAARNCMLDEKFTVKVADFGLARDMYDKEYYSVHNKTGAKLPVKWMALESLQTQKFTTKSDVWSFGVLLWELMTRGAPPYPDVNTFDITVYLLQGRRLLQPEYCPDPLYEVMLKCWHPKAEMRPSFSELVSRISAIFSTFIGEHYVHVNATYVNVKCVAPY
T1 sequence (P08581 25-1390): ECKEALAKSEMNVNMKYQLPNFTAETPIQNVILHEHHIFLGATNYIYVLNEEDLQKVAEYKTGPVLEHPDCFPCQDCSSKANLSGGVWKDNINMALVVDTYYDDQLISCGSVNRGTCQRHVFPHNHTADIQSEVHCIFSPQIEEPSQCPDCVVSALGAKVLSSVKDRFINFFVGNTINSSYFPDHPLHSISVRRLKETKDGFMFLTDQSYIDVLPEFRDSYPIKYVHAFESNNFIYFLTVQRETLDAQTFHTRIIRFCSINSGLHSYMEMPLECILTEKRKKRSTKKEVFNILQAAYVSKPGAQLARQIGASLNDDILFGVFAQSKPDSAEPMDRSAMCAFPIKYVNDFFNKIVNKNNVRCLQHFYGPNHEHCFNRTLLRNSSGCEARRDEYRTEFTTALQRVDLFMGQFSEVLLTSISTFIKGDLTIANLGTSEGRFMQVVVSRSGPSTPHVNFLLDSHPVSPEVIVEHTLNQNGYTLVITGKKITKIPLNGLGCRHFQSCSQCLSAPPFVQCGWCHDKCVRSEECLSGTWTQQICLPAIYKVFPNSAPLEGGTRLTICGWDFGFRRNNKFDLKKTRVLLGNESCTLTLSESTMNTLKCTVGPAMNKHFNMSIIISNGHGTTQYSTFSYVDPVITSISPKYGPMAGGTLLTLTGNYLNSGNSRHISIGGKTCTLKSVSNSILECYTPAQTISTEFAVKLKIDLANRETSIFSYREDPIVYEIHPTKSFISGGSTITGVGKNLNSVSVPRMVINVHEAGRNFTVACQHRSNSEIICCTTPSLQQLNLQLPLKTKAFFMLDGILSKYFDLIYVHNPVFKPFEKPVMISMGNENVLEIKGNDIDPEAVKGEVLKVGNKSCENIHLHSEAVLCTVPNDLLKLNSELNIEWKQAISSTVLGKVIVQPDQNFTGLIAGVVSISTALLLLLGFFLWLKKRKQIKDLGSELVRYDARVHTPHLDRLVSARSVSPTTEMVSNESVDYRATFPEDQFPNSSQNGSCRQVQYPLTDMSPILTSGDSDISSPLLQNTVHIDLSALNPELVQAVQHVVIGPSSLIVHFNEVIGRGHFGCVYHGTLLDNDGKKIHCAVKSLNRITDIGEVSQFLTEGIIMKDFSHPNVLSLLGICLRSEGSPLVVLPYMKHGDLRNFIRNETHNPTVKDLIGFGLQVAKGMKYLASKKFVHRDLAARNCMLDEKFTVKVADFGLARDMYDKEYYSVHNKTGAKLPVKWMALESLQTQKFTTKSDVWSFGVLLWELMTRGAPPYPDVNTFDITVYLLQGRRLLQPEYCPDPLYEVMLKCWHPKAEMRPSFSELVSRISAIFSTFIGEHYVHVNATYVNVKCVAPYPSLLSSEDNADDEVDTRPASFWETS

Row | pIC50 [1] | pIC50 [2] | pIC50 [3] | pKi [3] | Compound
1 | > 6.00 | > 6.00 | > 6.30 | – | COc1cnc2c(NCc3nnc4ccc(-c5cc(CO)no5)nn34)ccnc2c1 [Example 37, (5-(3-((7-methoxy-1,5-naphthyridin-4-ylamino)methyl)-[1,2,4]triazolo[4,3-b]pyridazin-6-yl)isoxazol-3-yl)methanol]
2 | > 6.00 | > 6.00 | – | – | COc1ccc2c(OCc3nnc4ccc(-c5ccc(N(C)C)nc5)nn34)ccnc2c1 [Example 43, 5-(3-((7-methoxyquinolin-4-yloxy)methyl)-[1,2,4]triazolo[4,3-b]pyridazin-6-yl)-N,N-dimethylpyridin-2-amine]
3 | – | – | – | 6.40 | c1ccc(-c2ccc3nnc(Cc4ccc5c(c4)OCO5)n3n2)cc1 [Example 326]
4 | – | – | – | 8.49 | C[C@H](c1nnc2c(F)cc(-c3cnn(CCO)c3)cn12)n1ccc2ncccc2c1=O [Example 509, (R)-6-(1-(8-fluoro-6-(1-(2-hydroxyethyl)-1H-pyrazol-4-yl)-[1,2,4]triazolo[4,3-a]pyridin-3-yl)ethyl)-1,6-naphthyridin-5(6H)-one]
5 | – | – | – | 9.30 | Cc1csc(-c2cc(F)c3nnc([C@@H](C)n4ccc5ncccc5c4=O)n3c2)c1 [Example 511, (R)-6-(1-(8-fluoro-6-(4-methylthiophen-2-yl)-[1,2,4]-triazolo[4,3-a]pyridin-3-yl)ethyl)-1,6-naphthyridin-5(6H)-one]
6 | – | – | – | 9.52 | Cc1cc(-c2cc(F)c3nnc([C@@H](C)n4ccc5ncc(-c6cnn(C)c6)cc5c4=O)n3c2)on1 [Example 527, 6-((R)-1-(8-fluoro-6-(3-methylisoxazol-5-yl)-[1,2,4]-triazolo[4,3-a]pyridin-3-yl)ethyl)-3-(1-methyl-1H-pyrazol-4-yl)-1,6-naphthyridin-5(6H)-one]

Continued, molecule first:

Row | Compound | pIC50 [1] | pIC50 [2] | pIC50 [3] | pKi [3]
7 | c1ccc(-c2ccc3nnc(COc4ccnc5ccccc45)n3n2)cc1 [Example 2, 4-((6-phenyl-[1,2,4]triazolo[4,3-b]pyridazin-3-yl)methoxy)quinoline] | > 6.00 | > 6.00 | – | –
8 | CNC(=O)c1ccc(-c2ccc3nnc(COc4ccnc5cc(OC)ccc45)n3n2)s1 [Example 30, 5-(3-((7-methoxyquinolin-4-yloxy)methyl)-[1,2,4]triazolo[4,3-b]pyridazin-6-yl)-N-methylthiophene-2-carboxamide] | – | – | > 6.30 | –
9 | COc1cnc2c(NCc3nnc4ccc(-c5cc(C(=O)O)no5)nn34)ccnc2c1 [Example 36, 5-(3-((7-methoxy-1,5-naphthyridin-4-ylamino)methyl)-[1,2,4]triazolo[4,3-b]pyridazin-6-yl)isoxazole-3-carboxylic acid] | > 6.00 | > 6.00 | > 6.30 | –
10 | Fc1cc(-c2ccccc2)cn2c(Cc3ccc4ncccc4c3)nnc12 [Example 437, 6-((8-fluoro-6-phenyl-[1,2,4]triazolo[4,3-a]pyridin-3-yl)methyl)quinoline] | – | – | – | 7.44
